Test results reported in patent US8546389B2 (priority 2010, dated 2013).
Like-named read-outs stand apart in the source and are kept apart here.

Legend:
[1] = system: subgenomic genotype 2a replicon cell line; experiment: HCV replicon assay, genotype 2a; type: cell-based, HCV genotype 2a; conditions: Hepatitis C virus
Description: (§1) A genotype 1b (Con 1) subgenomic replicon cell line based on Blight et al., Science 2000 290: 1972-1974, modified to express a Renilla luciferase reporter gene was used to assess antiviral activity of test compounds. Cell cultures were maintained in a sub-confluent state in DMEM with glutamine, 10% heat-inactivated foetal bovine serum (FBS) and G418 (Geneticin®).
(§2) For assay, cells were seeded at a density of 7000 cells/well into 96 well tissue culture trays in culture media lacking G418. Compounds were tested in a three fold dilution series, for example starting from 50 uM. After 72 hours incubation at 37° C. and 5% CO2, Renilla luciferase activity was quantified via the Promega Renilla Luciferase or Renilla-Glo™ Luciferase Assay Systems (Promega corporation. The same method was employed for replicon assays using subgenomic genotype 1a and 2a replicon cell lines with a seeding cell density of 5000 cells/well for the 2a cell lines.
(§3) The compound concentration that reduced luciferase activity by 50% (EC50) was calculated using non-linear regression.

[2] = molecular target: genotype 3a (VRL-69) NS5bΔ21 polymerase (Hepatitis C virus genotype 3a, UniProt Q81258); experiment: HCV polymerase inhibition assay, genotype 3a; type: biochemical, HCV genotype 3a (VRL-69)
Sequence of genotype 3a (VRL-69) NS5bΔ21 polymerase (Q81258 whole entry, looked up, stated change not applied): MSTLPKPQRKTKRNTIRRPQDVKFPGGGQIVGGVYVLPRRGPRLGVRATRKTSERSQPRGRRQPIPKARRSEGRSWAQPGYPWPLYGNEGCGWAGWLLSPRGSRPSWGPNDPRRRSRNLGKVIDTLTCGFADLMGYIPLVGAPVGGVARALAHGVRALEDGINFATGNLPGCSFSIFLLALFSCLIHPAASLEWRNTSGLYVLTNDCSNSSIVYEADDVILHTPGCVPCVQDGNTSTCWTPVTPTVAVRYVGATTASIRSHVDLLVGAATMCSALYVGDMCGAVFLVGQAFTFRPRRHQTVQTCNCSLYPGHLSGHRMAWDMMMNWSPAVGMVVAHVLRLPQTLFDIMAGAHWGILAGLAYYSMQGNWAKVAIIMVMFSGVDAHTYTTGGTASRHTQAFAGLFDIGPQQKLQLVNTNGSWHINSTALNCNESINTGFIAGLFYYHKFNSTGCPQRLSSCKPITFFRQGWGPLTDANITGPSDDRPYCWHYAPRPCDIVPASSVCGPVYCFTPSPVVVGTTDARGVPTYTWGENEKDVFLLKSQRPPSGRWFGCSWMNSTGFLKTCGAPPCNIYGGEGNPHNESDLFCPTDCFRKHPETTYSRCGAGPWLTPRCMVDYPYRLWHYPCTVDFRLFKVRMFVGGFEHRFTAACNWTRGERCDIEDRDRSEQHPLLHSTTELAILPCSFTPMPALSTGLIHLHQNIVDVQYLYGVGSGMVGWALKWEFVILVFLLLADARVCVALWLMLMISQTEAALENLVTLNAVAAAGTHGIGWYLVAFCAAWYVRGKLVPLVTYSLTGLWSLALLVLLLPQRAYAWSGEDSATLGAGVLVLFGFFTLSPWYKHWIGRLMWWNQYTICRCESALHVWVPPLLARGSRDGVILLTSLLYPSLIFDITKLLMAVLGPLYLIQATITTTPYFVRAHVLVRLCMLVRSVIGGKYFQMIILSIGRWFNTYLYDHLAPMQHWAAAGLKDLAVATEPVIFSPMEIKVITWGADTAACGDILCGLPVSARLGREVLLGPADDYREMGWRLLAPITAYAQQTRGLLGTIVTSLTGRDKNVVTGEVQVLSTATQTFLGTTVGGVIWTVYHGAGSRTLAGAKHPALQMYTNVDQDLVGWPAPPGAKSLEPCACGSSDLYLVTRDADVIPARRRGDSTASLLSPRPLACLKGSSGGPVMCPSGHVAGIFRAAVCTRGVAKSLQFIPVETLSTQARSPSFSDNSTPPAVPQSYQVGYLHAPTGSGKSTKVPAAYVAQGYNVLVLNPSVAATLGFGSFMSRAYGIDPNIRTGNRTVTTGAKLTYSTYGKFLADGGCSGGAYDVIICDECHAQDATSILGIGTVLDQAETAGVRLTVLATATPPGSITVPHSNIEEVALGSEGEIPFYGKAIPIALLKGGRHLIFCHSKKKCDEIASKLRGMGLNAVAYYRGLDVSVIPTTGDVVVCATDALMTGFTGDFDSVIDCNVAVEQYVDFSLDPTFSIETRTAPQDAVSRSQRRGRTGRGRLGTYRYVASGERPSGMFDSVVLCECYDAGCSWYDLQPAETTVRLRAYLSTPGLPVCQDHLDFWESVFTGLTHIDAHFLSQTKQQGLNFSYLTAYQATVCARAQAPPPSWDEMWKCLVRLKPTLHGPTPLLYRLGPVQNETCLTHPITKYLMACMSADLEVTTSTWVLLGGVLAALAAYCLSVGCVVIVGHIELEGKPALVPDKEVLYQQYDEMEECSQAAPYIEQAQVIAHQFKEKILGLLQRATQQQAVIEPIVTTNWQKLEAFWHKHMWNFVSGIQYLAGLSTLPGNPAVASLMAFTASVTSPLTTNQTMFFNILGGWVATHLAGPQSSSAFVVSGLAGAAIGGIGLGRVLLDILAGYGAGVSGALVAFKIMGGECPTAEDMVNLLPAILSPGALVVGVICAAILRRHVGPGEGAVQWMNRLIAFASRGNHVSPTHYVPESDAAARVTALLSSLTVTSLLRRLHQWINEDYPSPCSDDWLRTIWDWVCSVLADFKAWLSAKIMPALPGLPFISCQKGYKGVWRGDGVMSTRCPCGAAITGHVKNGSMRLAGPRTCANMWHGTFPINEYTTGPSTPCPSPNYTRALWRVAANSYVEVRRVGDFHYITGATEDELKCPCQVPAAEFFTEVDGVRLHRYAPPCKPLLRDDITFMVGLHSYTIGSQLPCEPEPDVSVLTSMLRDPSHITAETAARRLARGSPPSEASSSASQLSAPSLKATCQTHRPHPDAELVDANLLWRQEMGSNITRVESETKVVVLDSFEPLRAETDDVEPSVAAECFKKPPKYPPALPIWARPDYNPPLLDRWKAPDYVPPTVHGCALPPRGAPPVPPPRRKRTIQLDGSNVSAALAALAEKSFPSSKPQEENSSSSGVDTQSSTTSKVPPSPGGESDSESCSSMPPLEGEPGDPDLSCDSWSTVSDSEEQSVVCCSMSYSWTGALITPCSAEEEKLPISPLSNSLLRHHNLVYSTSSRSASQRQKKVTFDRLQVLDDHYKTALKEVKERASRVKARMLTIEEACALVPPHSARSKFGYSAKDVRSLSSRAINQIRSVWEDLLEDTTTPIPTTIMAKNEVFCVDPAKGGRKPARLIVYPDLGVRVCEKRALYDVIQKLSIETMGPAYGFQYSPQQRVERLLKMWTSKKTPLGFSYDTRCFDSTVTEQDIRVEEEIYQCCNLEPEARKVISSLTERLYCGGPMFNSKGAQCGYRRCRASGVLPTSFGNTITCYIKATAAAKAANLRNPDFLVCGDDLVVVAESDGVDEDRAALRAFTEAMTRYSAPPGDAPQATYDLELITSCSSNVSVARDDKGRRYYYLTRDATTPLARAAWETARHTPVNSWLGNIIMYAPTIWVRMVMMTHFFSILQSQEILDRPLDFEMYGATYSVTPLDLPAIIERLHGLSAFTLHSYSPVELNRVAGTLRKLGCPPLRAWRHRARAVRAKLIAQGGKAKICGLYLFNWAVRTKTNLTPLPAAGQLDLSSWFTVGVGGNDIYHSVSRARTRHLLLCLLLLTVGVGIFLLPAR
Description: HCV polymerase reactions were carried out using a modified method of Howe et al., Antimicrobial Agents and Chemotherapy 2004 48(12): 4813-4821. Reactions contained a final concentration of, 0.5% DMSO, 50 nM, 1b (BK) NS5bΔ21, 20 mM Tris-HCl pH 7.5, 5 mM MgCl2, 5 mM MnCl2, 3 mM DTT, 0.05% BSA, 0.2 U/μL RNasin, 10 μg/mL Poly(rC) template, GTP (at Km) and 0.05 μCi/μL ^33P-GTP in a total reaction volume of 50 μL. Compounds were tested in a three fold dilution series, for example starting from 50 μM. Reactions were initiated with the addition of GTP and terminated after 1 hour with 50 μL ice cold 0.2 M EDTA. Terminated reactions were transferred to DEAE 96-well filter plates, unincorporated nucleotides washed from the filters and 50 μL scintillation fluid added prior to reading on a scintillation counter. Similarly, a genotype 3a (VRL-69) NS5bΔ21 polymerase enzyme assay was conducted using essentially the same method.
The compound concentration that reduced ^33P-GTP incorporation by 50% (IC50) was calculated using non-linear regression.

[3] = system: genotype 1b (Con 1) subgenomic replicon cell line; experiment: HCV replicon assay, genotype 1b (Renilla luciferase); type: cell-based, HCV genotype 1b (Con 1); conditions: Hepatitis C virus, genotype 1b replicon
Outline: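 Subgenomic replicon cells expressing Renilla luciferase (1b Con1; 1a and 2a lines by the same method) seeded at 7000 cells/well (5000 for 2a) without G418, exposed to 3-fold compound dilutions for 72 h at 37 °C. Luciferase activity measured; EC50 by non-linear regression.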

1b (BK) NS5bΔ21 = 1b (BK) NS5bΔ21 (Hepatitis C virus genotype 1b (isolate BK) (HCV), UniProt P26663); experiment: HCV polymerase inhibition assay, genotype 1b; type: biochemical, HCV genotype 1b (BK)
Sequence of 1b (BK) NS5bΔ21 (P26663 2420-2989): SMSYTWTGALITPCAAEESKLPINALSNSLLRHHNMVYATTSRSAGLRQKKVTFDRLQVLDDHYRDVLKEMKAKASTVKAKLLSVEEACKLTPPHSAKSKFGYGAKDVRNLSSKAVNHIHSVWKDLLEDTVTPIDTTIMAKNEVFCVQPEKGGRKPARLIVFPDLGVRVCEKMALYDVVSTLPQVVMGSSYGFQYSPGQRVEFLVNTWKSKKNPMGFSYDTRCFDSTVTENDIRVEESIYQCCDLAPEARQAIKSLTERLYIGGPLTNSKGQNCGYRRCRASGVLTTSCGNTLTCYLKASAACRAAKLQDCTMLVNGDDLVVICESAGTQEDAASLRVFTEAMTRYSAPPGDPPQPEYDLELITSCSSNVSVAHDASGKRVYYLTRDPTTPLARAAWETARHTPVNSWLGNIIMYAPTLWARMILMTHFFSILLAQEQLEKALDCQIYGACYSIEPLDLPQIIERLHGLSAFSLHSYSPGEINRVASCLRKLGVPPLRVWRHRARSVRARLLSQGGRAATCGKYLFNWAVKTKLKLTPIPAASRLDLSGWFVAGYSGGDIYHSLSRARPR
Outline: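 Both genotype 1b and 3a enzymes assayed identically: ^33P-GTP incorporation on poly(rC) template, GTP at Km, 50 nM NS5bΔ21, pH 7.5 Tris with 5 mM MgCl2 and MnCl2, 1 h reaction ended by cold EDTA. Filter-bound label counted; IC50 fitted by non-linear regression across three-fold dilution series.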

[4] = system: subgenomic genotype 1a replicon cell line; experiment: HCV replicon assay, genotype 1a; type: cell-based, HCV genotype 1a; conditions: Hepatitis C virus
Description: as §1, §2, §3

[5] = genotype 3a, read-out: 3a NS5b polymerase IC50
[6] = 72 hours, luciferase, read-out: genotype 1b EC50 (range class)
[7] = 1b (BK) NS5bΔ21, 33P-GTP incorporation, read-out: 1b polymerase IC50 (range class)
[8] = genotype 1b, read-out: 1b NS5b polymerase IC50

Row | Structure (SMILES) | EC50 [1] [nM] | IC50 [2, 5] [nM] | EC50 [3, 6] [nM] | EC50 ([3]; read-out: Replicon 1b EC50) [nM] | IC50 (1b (BK) NS5bΔ21; [7]) [nM] | IC50 (1b (BK) NS5bΔ21; [8]) [nM] | EC50 [4] [nM] | IC50 [2] [nM]
1 | CNC(=O)c1c2cc(C3CC3)c(N(CCCSC)S(C)(=O)=O)cc2nn1-c1ccc(Br)cc1 [Compound 99, 2-(4-bromophenyl)-5-cyclopropyl-N-methyl-6-[3-methylsulfanylpropyl(methylsulfonyl)amino]-2H-indazole-3-carboxamide] | 1080 | 20 | < 990 | 70 | < 990 | 90 | 430 | 
2 | CNC(=O)c1c2cc(C3CC3)c(N(CCCN3CCCCC3)S(C)(=O)=O)cc2nn1-c1ccc(Oc2ccc(F)cc2)cc1 [Compound 111] | 2050 | 260 | < 990 | 340 | 1000 to 9990 | 1170 | 2920 | 
3 | CNC(=O)c1c2cc(C3CC3)c(N(CCN3CCOCC3)S(C)(=O)=O)cc2nn1-c1ccc(Oc2ccc(F)cc2)cc1 [Compound 112] | 2730 | 40 | < 990 | 130 | < 990 | 410 | 1900 | 
4 | CCN(c1cc2nn(-c3ccc(NCC(C)C)cc3)c(C(=O)NC)c2cc1C1CC1)S(C)(=O)=O [Compound 117] | 150 | 70 | < 990 | 70 | < 990 | 430 | 340 | 
5 | CNC(=O)c1c2cc(C3CC3)c(N(CCCNC(C)=O)S(C)(=O)=O)cc2nn1-c1ccc(Nc2ccc(F)cc2)cc1 [Compound 119] | 2700 | 30 | < 990 | 240 | < 990 | 130 | 1200 | 
6 | CNC(=O)c1c2cc(C3CC3)c(N(CCCNC(=O)c3ccoc3)S(C)(=O)=O)cc2nn1-c1ccc(Nc2ccc(F)cc2)cc1 [Compound 120] | 14400 |  | < 990 | 90 | < 990 | 110 | 3690 | 80
7 | CCOC(=O)CCN(c1cc2nn(-c3ccc(Br)cc3)c(C(=O)NC)c2cc1C1CC1)S(C)(=O)=O [Compound 131] | 3790 |  | < 990 | 140 | < 990 | 370 | 450 | 470
8 | CNC(=O)c1c2cc(C3CC3)c(N(CCCNS(C)(=O)=O)S(C)(=O)=O)cc2nn1-c1ccc(Br)cc1 [Compound 134] | 5020 | 30 | < 990 | 110 | < 990 | 90 | 540 | 
9 | CCN(c1cc2nn(-c3ccc(Oc4ccc(F)cc4)nc3)c(C(=O)NC)c2cc1C1CC1)S(C)(=O)=O [Compound 136] | 1800 | 820 | < 990 | 270 | 1000 to 9990 | 1550 | 1530 | 
10 | CNC(=O)c1c2cc(C3CC3)c(N(CCCNC(=O)C(C)C)S(C)(=O)=O)cc2nn1-c1ccc(Br)cc1 [Compound 156] | 1510 | 70 | < 990 | 210 | < 990 | 250 | 210 | 
11 | CNC(=O)c1c2cc(C3CC3)c(N(CCCNC(=O)c3ccoc3)S(C)(=O)=O)cc2nn1-c1ccc(Br)cc1 [Compound 160] | 780 | 40 | < 990 | 90 | < 990 | 70 | 340 | 
12 | CCOC(=O)CCC(=O)NCCCN(c1cc2nn(-c3ccc(Br)cc3)c(C(=O)NC)c2cc1C1CC1)S(C)(=O)=O [Compound 164] | 620 | 40 | < 990 | 210 | < 990 | 520 | 10 | 
13 | CNC(=O)c1c2cc(C3CC3)c(N(CCCNC(=O)c3ccccc3)S(C)(=O)=O)cc2nn1-c1ccc(Br)cc1 [Compound 166] | 340 | 30 | < 990 | 20 | < 990 | 160 | 20 | 
14 | CCCC(=O)NCCCN(c1cc2nn(-c3ccc(Br)cc3)c(C(=O)NC)c2cc1C1CC1)S(C)(=O)=O [Compound 171] | 4260 | 40 | < 990 | 210 | < 990 | 310 | 280 | 
15 | CNC(=O)c1c2cc(C3CC3)c(N(CCCNC(=O)C(F)(F)F)S(C)(=O)=O)cc2nn1-c1ccc(Br)cc1 [Compound 172] | 1830 | 40 | < 990 | 60 | < 990 | 110 | 60 | 
16 | CNC(=O)c1c2cc(C3CC3)c(N(CCCNC(=O)c3ccnc(OC)c3)S(C)(=O)=O)cc2nn1-c1ccc(Br)cc1 [Compound 177] | 310 | 60 | < 990 | 70 | < 990 | 280 | 110 | 
17 | CNC(=O)c1c2cc(C3CC3)c(N(CCCNC(=O)c3nonc3C)S(C)(=O)=O)cc2nn1-c1ccc(Br)cc1 [Compound 179] | 520 | 30 | < 990 | 70 | < 990 | 260 | 180 | 
18 | CNC(=O)c1c2cc(C3CC3)c(N(CCCNC(=O)c3cnn(C)c3C)S(C)(=O)=O)cc2nn1-c1ccc(Br)cc1 [Compound 180] | 1110 | 50 | < 990 | 140 | < 990 | 370 | 570 | 
19 | CNC(=O)c1c2cc(C3CC3)c(N(CCCNC(=O)c3cccc(OC)c3F)S(C)(=O)=O)cc2nn1-c1ccc(Br)cc1 [Compound 189] | 230 | 50 | < 990 | 30 | < 990 | 130 | 80 | 
20 | CNC(=O)c1c2cc(C3CC3)c(N(CCCNC(=O)c3cccnc3OC)S(C)(=O)=O)cc2nn1-c1ccc(Br)cc1 [Compound 190] | 430 | 40 | < 990 | 70 | < 990 | 830 | 90 | 
21 | CNC(=O)c1c2cc(C3CC3)c(N(CCCNC(=O)c3cccnc3)S(C)(=O)=O)cc2nn1-c1ccc(Br)cc1 [Compound 191] | 2590 | 20 | < 990 | 190 | < 990 | 430 | 400 | 
22 | CNC(=O)c1c2cc(C3CC3)c(N(CCCN3CCOCC3)S(C)(=O)=O)cc2nn1-c1ccc(Br)cc1 [Compound 200] | 1050 | 40 | < 990 | 170 | < 990 | 220 | 650 | 
23 | CNC(=O)c1c2cc(C3CC3)c(N(CCCNC(=O)[C@H]3CCC[C@@H]3C(=O)OC)S(C)(=O)=O)cc2nn1-c1ccc(Br)cc1 [Compound 216] | 680 | 20 | < 990 | 40 | < 990 | 180 | 130 | 
24 | CNC(=O)c1c2cc(C3CC3)c(N(C)S(C)(=O)=O)cc2nn1-c1ccc(Br)cc1 [Compound 234] | 420 | 20 | < 990 | 80 | < 990 | 140 | 240 | 
